Results on 30 molecules are retold here after patent US7842695B2, “Substituted pyrazole compounds” (Merck Patent GmbH, priority 2003, dated 2010).

Molecules are shown by their SMILES.

For one test, the target named is 5-HT2A receptors (UniProt P14842). Description: in-vitro affinity to 5-HT2A receptors, [3H]ketanserine displacement (Example A1). Format: binding. The text has this:
The 5-HT2A receptors are exposed both to [^3H]ketanserine (a substance known for its affinity to the receptor) and also to the test compound. The decrease in the affinity of [^3H]ketanserine to the receptor is an indication of the affinity of the test substance to the 5-HT2A receptor.

For a further test, the target named is T1, 5 HT2C receptor (Homo sapiens, UniProt P28335).
T1 sequence (P28335 33-458): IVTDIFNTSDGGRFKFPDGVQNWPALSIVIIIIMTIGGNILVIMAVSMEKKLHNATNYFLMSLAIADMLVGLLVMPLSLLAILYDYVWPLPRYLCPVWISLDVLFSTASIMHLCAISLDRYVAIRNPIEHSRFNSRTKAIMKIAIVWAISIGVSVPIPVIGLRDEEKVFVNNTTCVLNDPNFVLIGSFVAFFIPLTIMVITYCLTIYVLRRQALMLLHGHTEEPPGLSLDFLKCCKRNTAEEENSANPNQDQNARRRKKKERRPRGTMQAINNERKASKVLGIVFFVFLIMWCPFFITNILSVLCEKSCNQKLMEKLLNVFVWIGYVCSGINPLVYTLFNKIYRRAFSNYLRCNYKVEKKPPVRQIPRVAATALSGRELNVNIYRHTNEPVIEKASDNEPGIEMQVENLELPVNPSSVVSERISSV
Briefly: affinity to the 5 HT2C receptor. In kind it is binding.

Regarding `CN1CCN(Cc2cnn(-c3ccc(-c4cc(F)ccc4F)cc3)c2-c2ccco2)CC1` [Example 624, 1-[1-(2′,5′-Difluorobiphenyl-4-yl)-5-furan-2-yl-1H-pyrazol-4-ylmethyl]-4-methylpiperazine], the figures for the IC50 at 5-HT2A receptors and against 5 HT2C receptor were 36 nM and 280 nM, respectively.

Consider `COc1ccc(-c2ccc(-n3ncc(CCN4CCC(O)C4)c3-c3ccco3)cc2)cc1` (centres unmarked) [Example 571, 1-{2-[5-Furan-2-yl-1-(4′-methoxybiphenyl-4-yl)-1H-pyrazol-4-yl]ethyl}pyrrolidin-3-ol], for which the IC50 (as a rule, the concentration that inhibits the measured activity by half) was determined as 12 nM on 5-HT2A receptors and 800 nM against 5 HT2C receptor.

Regarding `COc1cccc(-c2c(CN(C)C)cnn2-c2ccc(-c3ccc(F)cc3)cc2)c1` [Example 592, [1-(4′-Fluorobiphenyl-4-yl)-5-(3-methoxyphenyl)-1H-pyrazol-4-ylmethyl]dimethylamine], the values for the IC50 on 5-HT2A receptors and at 5 HT2C receptor were 20 nM and 510 nM, respectively.

Turning to `CCN(CC)Cc1cnn(-c2ccc(-c3ccc4c(c3)OCCO4)cc2)c1-c1ccco1` [Example 630, {1-[4-(2,3-Dihydrobenzo-1,4-dioxin-6-yl)phenyl]-5-furan-2-yl-1H-pyrazol-4-ylmethyl}diethylamine], the IC50 at 5-HT2A receptors is 38 nM; on 5 HT2C receptor, 900 nM.

As to `CN(C)Cc1cnn(-c2ccc(-c3ccc4c(c3)OCCO4)cc2)c1-c1ccco1` [Example 540, {1-[4-(2,3-Dihydrobenzo-1,4-dioxin-6-yl)phenyl]-5-furan-2-yl-1H-pyrazol-4-ylmethyl}dimethylamine], the concentration for half-maximal inhibition (IC50) amounted to 3.6 nM on 5-HT2A receptors and 180 nM at 5 HT2C receptor.

For `CN1CCN(Cc2cnn(-c3ccc(-c4ccc(N(C)C)cc4)cc3)c2-c2ccccc2F)CC1` [Example 626, {4′-[5-(2-Fluorophenyl)-4-(4-methylpiperazin-1-ylmethyl)pyrazol-1-yl]biphenyl-4-yl}dimethylamine], the IC50 came out at 36 nM at 5-HT2A receptors and 1000 nM against 5 HT2C receptor.

With `COc1ccc(-c2ccc(-n3ncc(CN4CCN(C)CC4)c3-c3ccccc3F)cc2)cc1F` [Example 585, 1-[1-(3′-Fluoro-4′-methoxybiphenyl-4-yl)-5-(2-fluorophenyl)-1H-pyrazol-4-ylmethyl]-4-methylpiperazine], the IC50 on 5-HT2A receptors turned out to be 19 nM; against 5 HT2C receptor, 760 nM.

Consider `CN(C)CCN(C)Cc1cnn(-c2ccc(-c3ccc(F)cc3)cc2)c1-c1ccco1` [Example 635, N-[1-(4′-Fluorobiphenyl-4-yl)-5-furan-2-yl-1H-pyrazol-4-ylmethyl]-N,N′,N′-trimethylethane-1,2-diamine], for which the IC50 came out at 41 nM on 5-HT2A receptors and 1000 nM against 5 HT2C receptor.

With `OC1CCN(Cc2cnn(-c3ccc(-c4ccc5c(c4)OCO5)cc3)c2-c2ccco2)C1` (centres unmarked) [Example 548, 1-[1-(4-Benzo-1,3-dioxol-5-ylphenyl)-5-furan-2-yl-1H-pyrazol-4-ylmethyl]pyrrolidin-3-ol], the IC50 at 5-HT2A receptors came to 5.1 nM; at 5 HT2C receptor, 410 nM.

In the case of `CCN1CCN(Cc2cnn(-c3ccc(-c4ccc(OC)cc4)cc3)c2-c2ccco2)CC1` [Example 551, 1-Ethyl-4-[5-furan-2-yl-1-(4′-methoxybiphenyl-4-yl)-1H-pyrazol-4-ylmethyl]piperazine], the IC50 on 5-HT2A receptors is 6.1 nM; at 5 HT2C receptor it was 495 nM.

`CN(C)Cc1cnn(-c2ccc(-c3ccc4c(c3)OCO4)cc2)c1-c1ccco1` [Example 531, [1-(4-Benzo-1,3-dioxol-5-ylphenyl)-5-furan-2-yl-1H-pyrazol-4-ylmethyl]dimethylamine]: the IC50 amounted to 1.4 nM at 5-HT2A receptors and 74 nM against 5 HT2C receptor.

For `Fc1ccccc1-c1c(CN2CCNCC2)cnn1-c1ccc(C(F)(F)F)cn1` [Example 588, 1-[5-(2-Fluorophenyl)-1-(5-trifluoromethylpyridin-2-yl)-1H-pyrazol-4-ylmethyl]piperazine], the values for the IC50 at 5-HT2A receptors and on 5 HT2C receptor were 20 nM and 1000 nM, respectively.

As for `COc1ccc(-c2ccc(-n3ncc(CN4CCN(C)CC4)c3-c3ccco3)cc2)cc1` [Example 546, 1-[5-Furan-2-yl-1-(4′-methoxybiphenyl-4-yl)-1H-pyrazol-4-ylmethyl]-4-methylpiperazine], the IC50 at 5-HT2A receptors stood at 4.8 nM; on 5 HT2C receptor, 360 nM.

With `CN(C)Cc1cnn(-c2ccc(-c3cccc(F)c3)cc2)c1-c1ccco1` [Example 538, [1-(3′-Fluorobiphenyl-4-yl)-5-furan-2-yl-1H-pyrazol-4-ylmethyl]dimethylamine], the half-maximal inhibitory concentration (IC50) came to 3.4 nM on 5-HT2A receptors and 170 nM against 5 HT2C receptor.

Take `OC1CCN(Cc2cnn(-c3ccc(-c4ccc5c(c4)OCCO5)cc3)c2-c2ccco2)C1` (centres unmarked) [Example 544, 1-{1-[4-(2,3-Dihydrobenzo-1,4-dioxin-6-yl)phenyl]-5-furan-2-yl-1H-pyrazol-4-ylmethyl}pyrrolidin-3-ol]: the IC50 on 5-HT2A receptors is 4.3 nM; at 5 HT2C receptor, 470 nM.

For the molecule `CCN1CCN(Cc2cnn(-c3ccc(-c4ccc5c(c4)OCCO5)cc3)c2-c2ccco2)CC1` [Example 557, 1-{1-[4-(2,3-Dihydrobenzo-1,4-dioxin-6-yl)phenyl]-5-furan-2-yl-1H-pyrazol-4-ylmethyl}-4-ethylpiperazine], the IC50 was 8 nM on 5-HT2A receptors and 349 nM on 5 HT2C receptor.

With `CN(C)Cc1cnn(-c2ccc(-c3ccc(F)cc3)cc2)c1-c1ccoc1` [Example 576, [1-(4′-Fluorobiphenyl-4-yl)-5-furan-3-yl-1H-pyrazol-4-ylmethyl]dimethylamine], the values for the IC50 at 5-HT2A receptors and against 5 HT2C receptor were 16 nM and 180 nM, respectively.

Take `CN1CCN(Cc2cnn(-c3ccc(-c4ccsc4)cc3)c2-c2ccccc2)CC1` [Example 610, 1-Methyl-4-[5-phenyl-1-(4-thiophen-3-ylphenyl)-1H-pyrazol-4-ylmethyl]piperazine]: the IC50 at 5-HT2A receptors came to 31 nM; on 5 HT2C receptor it was 490 nM.

In the case of `c1coc(-c2c(CN3CCN(C4CCCC4)CC3)cnn2-c2ccc(-c3ccc4c(c3)OCCO4)cc2)c1` [Example 554, 1-Cyclopentyl-4-{1-[4-(2,3-dihydrobenzo-1,4-dioxin-6-yl)phenyl]-5-furan-2-yl-1H-pyrazol-4-ylmethyl}piperazine], the concentration for half-maximal inhibition (IC50) worked out at 7 nM at 5-HT2A receptors and 1300 nM against 5 HT2C receptor.

In the case of `CC(C)N1CCN(Cc2cnn(-c3ccc(-c4ccc(F)cc4)cc3)c2-c2ccco2)CC1` [Example 558, 1-[1-(4′-Fluorobiphenyl-4-yl)-5-furan-2-yl-1H-pyrazol-4-ylmethyl]-4-isopropylpiperazine], the values for the IC50 on 5-HT2A receptors and against 5 HT2C receptor were 8.2 nM and 370 nM, respectively.

As to `CN1CCN(C(=O)c2cnn(-c3ccccc3)c2NC(=O)c2ccccc2F)CC1` [Example 640], the IC50 at 5-HT2A receptors turned out to be 44 nM; on 5 HT2C receptor, 1000 nM.

`CCN(CC)Cc1cnn(-c2ccc(-c3cccc(F)c3)cc2)c1-c1ccco1` [Example 606, Diethyl-[1-(3′-fluorobiphenyl-4-yl)-5-furan-2-yl-1H-pyrazol-4-ylmethyl]amine]: the IC50 amounted to 27 nM at 5-HT2A receptors and 1000 nM against 5 HT2C receptor.

Regarding `OC1CCN(Cc2cnn(-c3ccc(-c4ccc(F)cc4)cc3)c2-c2cccc(Cl)c2)C1` (centres unmarked) [Example 618, 1-[5-(3-Chlorophenyl)-1-(4′-fluorobiphenyl-4-yl)-1H-pyrazol-4-ylmethyl]pyrrolidin-3-ol], the IC50 at 5-HT2A receptors worked out at 33 nM; at 5 HT2C receptor, 1000 nM.

On to `CN(C)CCCN(C)Cc1cnn(-c2ccc(-c3ccc(F)cc3)cc2)c1-c1ccco1` [Example 659, N-[1-(4′-Fluorobiphenyl-4-yl)-5-furan-2-yl-1H-pyrazol-4-ylmethyl]-N,N′,N′-trimethylpropane-1,3-diamine], for which the IC50 on 5-HT2A receptors was found to be 76 nM; against 5 HT2C receptor it was 810 nM.

`CN1CCN(Cc2cnn(-c3ccc(-c4ccc(Oc5ccccc5)cc4)cc3)c2-c2ccccc2F)CC1` [Example 634, 1-[5-(2-Fluorophenyl)-1-(4′-phenoxybiphenyl-4-yl)-1H-pyrazol-4-ylmethyl]-4-methylpiperazine]: the figures for the IC50 at 5-HT2A receptors and against 5 HT2C receptor were 41 nM and 970 nM, respectively.

For the molecule `COc1ccc(-c2ccc(-n3ncc(CN4CCN(C)CC4)c3-c3ccccc3F)cc2)cc1OC` [Example 644, 1-[1-(3′,4′-Dimethoxybiphenyl-4-yl)-5-(2-fluorophenyl)-1H-pyrazol-4-ylmethyl]-4-methylpiperazine], the IC50 at 5-HT2A receptors was determined as 49 nM; against 5 HT2C receptor it was 1000 nM.

Regarding `CCN1CCN(Cc2cnn(-c3ccc(-c4ccc(F)cc4)cc3)c2-c2c(C)noc2C)CC1` [Example 672, 1-[5-(3,5-Dimethylisoxazol-4-yl)-1-(4′-fluorobiphenyl-4-yl)-1H-pyrazol-4-ylmethyl]-4-ethylpiperazine], at 5-HT2A receptors, the half-maximal inhibitory concentration (IC50) was 100 nM.

`COCCNCc1cnn(-c2ccc(-c3ccc(F)cc3)cc2)c1-c1ccco1` [Example 603, [1-(4′-Fluorobiphenyl-4-yl)-5-furan-2-yl-1H-pyrazol-4-ylmethyl]-(2-methoxyethyl)amine] had an IC50 on 5-HT2A receptors of 26 nM.

Molecule `COc1cccc(-c2c(CN3CCC(N4CCCC4)CC3)cnn2-c2ccc(-c3ccc(F)cc3)cc2)c1` [Example 698, 1-[1-(4′-Fluorobiphenyl-4-yl)-5-(3-methoxyphenyl)-1H-pyrazol-4-ylmethyl]-4-pyrrolidin-1-ylpiperidine] yielded an IC50 at 5-HT2A receptors of 420 nM.

Consider `Cc1noc(C)c1-c1c(CN2CCN(C)CC2)cnn1-c1ccc(-c2ccc(F)cc2)cc1` [Example 696, 1-[5-(3,5-Dimethylisoxazol-4-yl)-1-(4′-fluorobiphenyl-4-yl)-1H-pyrazol-4-ylmethyl]-4-methylpiperazine], for which the IC50 at 5-HT2A receptors was 320 nM.
